Values after ≈ are worked out from the molar mass of the structure shown.
Assays:
Aphidius rhopalosiphi = test: LR50; higher = less toxic; details: not reported; mortality
Cyprinodon variegatus = details: chronic/long-term; duration: 100 days; reproduction
Hypoaspis aculeifer = details: chronic/long-term; reproduction
Bibionidae = details: chronic/long-term; duration: 28 days; other
Apis mellifera = details: acute, mortality
Anas platyrhynchos = details: reproductive
Argyrosomus sp. = details: acute; duration: 96 hours; mortality
Colinus virginianus = details: acute; oral; mortality
Pleurozium sp. = details: acute; duration: 72 hours; growth
Folsomia candida = details: chronic/long-term; duration: 28 days; reproduction
Oncorhynchus mykiss = details: acute; duration: 96 hours; mortality

CCCC1COC(Cn2cncn2)(c2ccc(Cl)cc2Cl)O1 (centres undefined) [Propiconazole]
LR50 (Aphidius rhopalosiphi): > 250 g/ha
NOEC (Cyprinodon variegatus): 0.068 mg/L
NOEC (Hypoaspis aculeifer): 22.4 mg/kg
NOEC (Bibionidae): 4 mg/L
LD50 (Rattus norvegicus; acute, oral, mortality): 550 mg/kg-day
NOAEL (Rattus norvegicus; chronic, duration: 2 years, organ weight): 3.6 mg/kg-day
NOAEL (Rattus norvegicus; developmental, development): 30 mg/kg-day
NOAEL (Rattus norvegicus; reproduction developmental, histopathology: nonneoplastic): 8.4 mg/kg-day
LD50 (Apis mellifera; dermal): 46.3 µg/piece
LD50 (Apis mellifera; oral, unspecified): 203 µg/piece
NOAEL (Anas platyrhynchos): 25.5 mg/kg-day
LC50 (Argyrosomus sp.): 2.6 µg/mL (≈ 7.6 µM)
LD50 (Colinus virginianus): ≥ 2510 mg/kg-day
LC50 (Neomysis kadiakensis; acute, duration: 96 hours, mortality): 0.51 µg/mL (≈ 1.49 µM)
NOEC (Neomysis kadiakensis; chronic/long-term, duration: 28 days, reproduction): 0.114 mg/L

O=C(O)[C@H]1CO[C@@](Cn2cncn2)(c2ccc(Cl)cc2Cl)O1 (racemic)
NOEC (Pleurozium sp.): 112 mg/L
NOEC (Folsomia candida): 1000 mg/kg

O=C(O)[C@@H]1CO[C@@](Cn2cncn2)(c2ccc(Cl)cc2Cl)O1 (racemic)
LC50 (Oncorhynchus mykiss): > 100 µg/mL
NOEC (Folsomia candida): 1000 mg/kg
